Experimental data: ChEMBL document CHEMBL2062364, “Discovery and optimization of new benzimidazole- and benzoxazole-pyrimidone selective PI3Kβ inhibitors for the treatment of phosphatase and TENsin homologue (PTEN)-deficient cancers” (J Med Chem, 2012)
Converted amounts (≈) assume the structure as drawn.

Columns and labels:
[1] = Inhibition of mTORC2-mediated Akt phosphorylation at Ser473 residue in PTEN-deficient human PC3 cells after 2 hrs by Western blot analysis; assay type: cell-based; settings: PC-3, 2 h
[2] = AUC (0 to Tlast) in CB17/ICR-Prkdc SCID mouse at 6 mg/kg, iv; assay type: ADME, organism-based; set-up: dose 6 mg/kg, route intravenous; settings: plasma
[3] = C0 in CB17/ICR-Prkdc SCID mouse at 6 mg/kg, iv; assay type: ADME, organism-based; set-up: dose 6 mg/kg, route intravenous; settings: in vivo
Mus musculus = assay: Inhibition of Akt phosphorylation at T308 residue in SCID mouse bearing human PTEN-deficient PC3 cells at 300 mg/kg, po BID measured after 6 hrs; assay type: functional; settings: PC-3, 6 h
[4] = Tmax in CB17/ICR-Prkdc SCID mouse at 10 mg/kg, po; assay type: ADME, organism-based; set-up: dose 10 mg/kg, route oral; settings: in vivo
[5] = Drug uptake in tumor of SCID mouse xenografted with PTEN-deficient human PC3 cells at 300 mg/kg, po BID measured after 1 hr; assay type: ADME, organism-based, Neoplasm, PC-3; set-up: dose 300 mg/kg, route oral; settings: read-out: Drug uptake
[6] = Terminal half life in CB17/ICR-Prkdc SCID mouse at 10 mg/kg, po; assay type: ADME, organism-based; set-up: dose 10 mg/kg, route oral; settings: in vivo, read-out: beta t1/2 (converted)
[7] = Drug uptake in tumor of SCID mouse xenografted with PTEN-deficient human PC3 cells at 300 mg/kg, po BID measured after 0.5 hrs; assay type: ADME, organism-based, Neoplasm, PC-3; set-up: dose 300 mg/kg, route oral; settings: read-out: Drug uptake
[8] = Thermodynamic solubility of the compound in phosphate buffer at pH 7.4 after 16 hrs by HPLC analysis; assay type: physicochemical; settings: read-out: Therm_solubility
[9] = molecular target: Phosphatidylinositol 4,5-bisphosphate 3-kinase catalytic subunit gamma isoform (Homo sapiens, UniProt P48736); assay: Inhibition of human PI3Kgamma-mediated Akt phosphorylation at Ser473 residue expressed in mouse RAW264.7 cells after 0.5 to 2 hrs by Western blot analysis; assay type: cell-based
Sequence of Phosphatidylinositol 4,5-bisphosphate 3-kinase catalytic subunit gamma isoform (P48736 whole entry, canonical isoform): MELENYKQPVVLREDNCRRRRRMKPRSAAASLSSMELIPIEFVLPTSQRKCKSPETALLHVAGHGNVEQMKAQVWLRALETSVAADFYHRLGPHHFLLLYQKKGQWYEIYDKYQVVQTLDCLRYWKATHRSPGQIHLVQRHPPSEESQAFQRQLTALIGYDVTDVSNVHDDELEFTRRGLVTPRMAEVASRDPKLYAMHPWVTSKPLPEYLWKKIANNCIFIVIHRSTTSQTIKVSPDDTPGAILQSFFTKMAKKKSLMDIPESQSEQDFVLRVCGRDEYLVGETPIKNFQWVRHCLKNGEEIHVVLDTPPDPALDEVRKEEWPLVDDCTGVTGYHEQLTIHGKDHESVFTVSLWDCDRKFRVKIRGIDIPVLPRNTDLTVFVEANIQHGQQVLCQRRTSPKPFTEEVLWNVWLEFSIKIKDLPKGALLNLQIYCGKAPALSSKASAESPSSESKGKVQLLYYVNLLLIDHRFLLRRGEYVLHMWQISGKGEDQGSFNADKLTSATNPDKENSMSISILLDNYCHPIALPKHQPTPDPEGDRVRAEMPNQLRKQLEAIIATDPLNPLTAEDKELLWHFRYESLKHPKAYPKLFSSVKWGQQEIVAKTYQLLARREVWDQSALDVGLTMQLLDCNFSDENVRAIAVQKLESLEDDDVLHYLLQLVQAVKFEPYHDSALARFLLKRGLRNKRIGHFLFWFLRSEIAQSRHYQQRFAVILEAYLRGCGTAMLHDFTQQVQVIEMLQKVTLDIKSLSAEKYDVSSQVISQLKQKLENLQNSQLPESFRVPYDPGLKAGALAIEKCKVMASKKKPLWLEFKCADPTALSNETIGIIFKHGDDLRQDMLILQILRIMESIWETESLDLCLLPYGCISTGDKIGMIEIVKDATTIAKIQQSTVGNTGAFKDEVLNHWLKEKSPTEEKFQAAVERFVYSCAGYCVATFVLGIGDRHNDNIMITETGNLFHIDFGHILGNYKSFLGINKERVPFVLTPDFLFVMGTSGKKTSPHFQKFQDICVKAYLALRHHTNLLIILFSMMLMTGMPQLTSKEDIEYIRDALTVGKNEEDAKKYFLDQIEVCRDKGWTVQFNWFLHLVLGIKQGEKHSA

[10] = Drug uptake in tumor of SCID mouse xenografted with PTEN-deficient human PC3 cells at 300 mg/kg, po BID measured after 6 hrs; assay type: ADME, organism-based, Neoplasm, PC-3; set-up: dose 300 mg/kg, route oral; settings: read-out: Drug uptake
[11] = Apparent permeability of the compound across human Caco2 cells; assay type: ADME, cell-based; settings: Caco-2
[12] = Drug uptake in tumor of SCID mouse xenografted with PTEN-deficient human PC3 cells at 300 mg/kg, po BID measured after 3 hrs; assay type: ADME, organism-based, Neoplasm, PC-3; set-up: dose 300 mg/kg, route oral; settings: read-out: Drug uptake
[13] = AUC (0 to 24 hrs) in CB17/ICR-Prkdc SCID mouse at 10 mg/kg, po; assay type: ADME, organism-based; set-up: time < 24 hr, dose 10 mg/kg, route oral; settings: plasma
[14] = AUC (0 to infinity) in CB17/ICR-Prkdc SCID mouse at 10 mg/kg, po; assay type: ADME, organism-based; set-up: time infinity, dose 10 mg/kg, route oral; settings: plasma
[15] = molecular target: T1, Phosphatidylinositol 4,5-bisphosphate 3-kinase catalytic subunit delta isoform (Homo sapiens, UniProt O00329); assay: Inhibition of human PI3Kdelta-mediated Akt phosphorylation at Ser473 residue expressed in mouse MEF-3T3 cells after 0.5 to 2 hrs by Western blot analysis; assay type: cell-based
T1 sequence (O00329 whole entry): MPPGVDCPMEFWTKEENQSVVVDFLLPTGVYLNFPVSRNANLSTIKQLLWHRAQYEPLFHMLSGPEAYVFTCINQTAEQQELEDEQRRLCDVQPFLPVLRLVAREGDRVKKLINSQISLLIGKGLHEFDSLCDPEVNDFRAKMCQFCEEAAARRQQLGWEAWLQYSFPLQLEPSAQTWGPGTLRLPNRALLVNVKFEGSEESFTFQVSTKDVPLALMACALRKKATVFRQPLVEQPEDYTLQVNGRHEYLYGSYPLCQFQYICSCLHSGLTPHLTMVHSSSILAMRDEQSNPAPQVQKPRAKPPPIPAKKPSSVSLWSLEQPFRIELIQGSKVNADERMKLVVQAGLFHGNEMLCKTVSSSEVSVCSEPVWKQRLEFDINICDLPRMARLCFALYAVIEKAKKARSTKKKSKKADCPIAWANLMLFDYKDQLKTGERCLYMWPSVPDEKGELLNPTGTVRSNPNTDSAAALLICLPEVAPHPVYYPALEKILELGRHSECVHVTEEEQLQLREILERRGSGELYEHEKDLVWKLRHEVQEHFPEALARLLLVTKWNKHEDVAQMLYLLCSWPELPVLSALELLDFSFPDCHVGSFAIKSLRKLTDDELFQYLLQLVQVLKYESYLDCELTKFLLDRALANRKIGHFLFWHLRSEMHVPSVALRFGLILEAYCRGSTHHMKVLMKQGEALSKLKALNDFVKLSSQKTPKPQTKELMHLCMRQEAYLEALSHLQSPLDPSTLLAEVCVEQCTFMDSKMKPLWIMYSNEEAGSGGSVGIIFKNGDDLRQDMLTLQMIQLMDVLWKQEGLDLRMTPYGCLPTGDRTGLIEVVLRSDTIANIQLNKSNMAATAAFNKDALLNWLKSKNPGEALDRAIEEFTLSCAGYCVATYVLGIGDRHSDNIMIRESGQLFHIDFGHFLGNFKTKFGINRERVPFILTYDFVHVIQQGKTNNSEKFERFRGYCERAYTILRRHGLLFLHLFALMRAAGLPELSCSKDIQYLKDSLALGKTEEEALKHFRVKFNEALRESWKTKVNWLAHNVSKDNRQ

PC-3 = assay: Antitumor activity against PTEN-deficient human PC3 cells xenografted in SCID mouse assessed as tumor growth inhibition at 300 mg/kg, po BID for 9 days measured on day 32 relative to control; assay type: functional
[16] = Plasma concentration in SCID mouse xenografted with PTEN-deficient human PC3 cells at 300 mg/kg, po BID measured after 24 hrs; assay type: ADME, organism-based, PC-3; set-up: dose 300 mg/kg, route oral
[17] = Drug metabolism in mouse liver microsomes; assay type: ADME, Microsome; settings: read-out: Drug metabolism

IC50 [1]: 76 nM | AUC(0-t) [2]: 1950 ng·h/mL | C0 [3]: 4870 ng/mL | Tmax [4]: 30 min | concentration at 1 h [5]: 16 µM | half-life [6]: 234 min | concentration at 0.5 h [7]: 13 µM | solubility thermodynamic at 16 h [8]: 65 µM (≈ 21.1 µg/mL) | IC50 [9]: > 10 µM | concentration at 6 h [10]: 3.6 µM | Papp [11]: 3 ×10⁻⁶ cm/s | concentration at 3 h [12]: 6 µM | AUC(0-t) at 24 h [13]: 846 ng·h/mL | AUC(0-inf) [14]: 850 ng·h/mL | IC50 [15]: 2650 nM | concentration at 24 h [16]: 1700 nM | metabolised [17]: 13%
SMILES: Cn1c(Cc2nc(N3CCOCC3)cc(=O)[nH]2)nc2ccccc21
inhibition in vivo at 300 mg/kg (Mus musculus): > 50% | T/C (PC-3): 45%
